System: KRAS PDC multicell spheroid viability
Assay: Anticancer human tumor 825966-067-R-J1-PDC patient-derived colon carcinoma cell line growth inhibition [KRAS2]
Conditions: for IC50: curve of first compound; for viability, T/C: stronger effect = lower value
Summary of the method: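 KRAS-mutant tumor cells were grown as spheroids with HUVEC endothelial cells and human MSCs as stroma. Targeted agents were tested alone and with KRAS pathway inhibitors. Doses started at or near clinical Cmax, or 10 microM, descending half-log.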

[1] = second compound 0.1 µM, first compound 0.0316 µM
[2] = second compound 0.1 µM, first compound 0.1 µM
[3] = second compound 0.1 µM, first compound 0.316 µM
[4] = second compound 0.1 µM, first compound 1 µM
[5] = second compound 0.1 µM, first compound 3.16 µM
[6] = second compound 0.316 µM, first compound 0.0316 µM
[7] = second compound 0.316 µM, first compound 0.1 µM
[8] = second compound 0.316 µM, first compound 0.316 µM
[9] = second compound 0.316 µM, first compound 1 µM
[10] = second compound 0.316 µM, first compound 3.16 µM
[11] = second compound 1 µM, first compound 0.0316 µM
[12] = second compound 1 µM, first compound 0.1 µM
[13] = second compound 1 µM, first compound 0.316 µM
[14] = second compound 1 µM, first compound 1 µM
[15] = second compound 1 µM, first compound 3.16 µM
[16] = second compound 3.16 µM, first compound 0.0316 µM
[17] = second compound 3.16 µM, first compound 0.1 µM
[18] = second compound 3.16 µM, first compound 0.316 µM
[19] = second compound 3.16 µM, first compound 1 µM
[20] = second compound 3.16 µM, first compound 3.16 µM
[21] = second compound 10 µM, first compound 0.0316 µM
[22] = second compound 10 µM, first compound 0.1 µM
[23] = second compound 10 µM, first compound 0.316 µM
[24] = second compound 10 µM, first compound 1 µM
[25] = second compound 10 µM, first compound 3.16 µM
[26] = second compound 0.1 µM, first compound 0.01 µM
[27] = second compound 0.316 µM, first compound 0.01 µM
[28] = second compound 1 µM, first compound 0.01 µM
[29] = second compound 3.16 µM, first compound 0.01 µM
[30] = second compound 10 µM, first compound 0.01 µM
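Further: spheroids exposed to compounds for 7 days.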
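Wherever viability, T/C is given: 100% = DMSO vehicle control viability.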

Compound: Cn1nccc1Nc1nccc(-c2cc3c(s2)C(C)(C)N(CCN2CCOCC2)C3=O)n1 + CC1OCC2(CCN(c3cnc(Sc4ccnc(N)c4Cl)c(N)n3)CC2)C1N
- IC50 (second compound 0.1 µM): > 10000 nM
- IC50 (second compound 0.316 µM): > 10000 nM
- IC50 (second compound 1 µM): > 10000 nM
- IC50 (second compound 3.16 µM): > 10000 nM
- IC50 (second compound 10 µM): 85 nM
- viability, T/C [1]: 125%
- viability, T/C [2]: 97.3%
- viability, T/C [3]: 128%
- viability, T/C [4]: 95.8%
- viability, T/C [5]: 104%
- viability, T/C (second compound 0.1 µM, first compound 10 µM): 68.5%
- viability, T/C [6]: 88.8%
- viability, T/C [7]: 124%
- viability, T/C [8]: 131%
- viability, T/C [9]: 104%
- viability, T/C [10]: 87.4%
- viability, T/C (second compound 0.316 µM, first compound 10 µM): 77.3%
- viability, T/C [11]: 93%
- viability, T/C [12]: 115%
- viability, T/C [13]: 106%
- viability, T/C [14]: 81.9%
- viability, T/C [15]: 89.2%
- viability, T/C (second compound 1 µM, first compound 10 µM): 63.3%
- viability, T/C [16]: 107%
- viability, T/C [17]: 130%
- viability, T/C [18]: 92.3%
- viability, T/C [19]: 56.6%
- viability, T/C [20]: 59%
- viability, T/C (second compound 3.16 µM, first compound 10 µM): 77%
- viability, T/C [21]: 80.4%
- viability, T/C [22]: 45%
- viability, T/C [23]: 14.4%
- viability, T/C [24]: 6.71%
- viability, T/C [25]: 12.1%
- viability, T/C (second compound 10 µM, first compound 10 µM): 43.9%

Compound: CC(=O)Nc1cccc(-n2c(=O)n(C3CC3)c(=O)c3c(Nc4ccc(I)cc4F)n(C)c(=O)c(C)c32)c1 + CNCc1ccccc1-c1csc(C(C)Nc2nc(C)nc3cc(OC)c(OC)cc23)c1
- IC50 (second compound 0.1 µM): 23.9 nM
- IC50 (second compound 0.316 µM): 27.5 nM
- IC50 (second compound 1 µM): 17.1 nM
- IC50 (second compound 3.16 µM): < 0.1 nM
- IC50 (second compound 10 µM): < 0.1 nM
- viability, T/C (second compound 0.1 µM, first compound 0.0001 µM): 89.5%
- viability, T/C (second compound 0.1 µM, first compound 0.000316 µM): 107%
- viability, T/C (second compound 0.1 µM, first compound 0.001 µM): 108%
- viability, T/C (second compound 0.1 µM, first compound 0.00316 µM): 107%
- viability, T/C [26]: 92.9%
- viability, T/C [1]: 35.7%
- viability, T/C (second compound 0.316 µM, first compound 0.0001 µM): 88.3%
- viability, T/C (second compound 0.316 µM, first compound 0.000316 µM): 97.9%
- viability, T/C (second compound 0.316 µM, first compound 0.001 µM): 105%
- viability, T/C (second compound 0.316 µM, first compound 0.00316 µM): 108%
- viability, T/C [27]: 106%
- viability, T/C [6]: 42.9%
- viability, T/C (second compound 1 µM, first compound 0.0001 µM): 96.1%
- viability, T/C (second compound 1 µM, first compound 0.000316 µM): 98.2%
- viability, T/C (second compound 1 µM, first compound 0.001 µM): 112%
- viability, T/C (second compound 1 µM, first compound 0.00316 µM): 92.2%
- viability, T/C [28]: 78.5%
- viability, T/C [11]: 18.1%
- viability, T/C (second compound 3.16 µM, first compound 0.0001 µM): 28.4%
- viability, T/C (second compound 3.16 µM, first compound 0.000316 µM): 51.9%
- viability, T/C (second compound 3.16 µM, first compound 0.001 µM): 16.4%
- viability, T/C (second compound 3.16 µM, first compound 0.00316 µM): 0.36%
- viability, T/C [29]: 0.15%
- viability, T/C [16]: 0.26%
- viability, T/C (second compound 10 µM, first compound 0.0001 µM): 0.16%
- viability, T/C (second compound 10 µM, first compound 0.000316 µM): 0.14%
- viability, T/C (second compound 10 µM, first compound 0.001 µM): 0.13%
- viability, T/C (second compound 10 µM, first compound 0.00316 µM): 0.11%
- viability, T/C [30]: 0.12%
- viability, T/C [21]: 0.17%

Compound: CC(=O)OC12COC1CC(O)C1(C)C(=O)C(O)C3=C(C)C(OC(=O)C(O)C(NC(=O)OC(C)(C)C)c4ccccc4)CC(O)(C(OC(=O)c4ccccc4)C21)C3(C)C (stereo not given) + CNCc1ccccc1-c1csc(C(C)Nc2nc(C)nc3cc(OC)c(OC)cc23)c1
- IC50 (second compound 0.1 µM): < 10 nM
- IC50 (second compound 0.316 µM): < 10 nM
- IC50 (second compound 1 µM): < 10 nM
- IC50 (second compound 3.16 µM): < 10 nM
- IC50 (second compound 10 µM): < 10 nM
- viability, T/C [26]: 21.7%
- viability, T/C [1]: 14.4%
- viability, T/C [2]: 17.6%
- viability, T/C [3]: 15.7%
- viability, T/C [4]: 18.1%
- viability, T/C [5]: 23.4%
- viability, T/C [27]: 17.2%
- viability, T/C [6]: 10.2%
- viability, T/C [7]: 11.7%
- viability, T/C [8]: 11.5%
- viability, T/C [9]: 14.3%
- viability, T/C [10]: 18.6%
- viability, T/C [28]: 12.6%
- viability, T/C [11]: 17.5%
- viability, T/C [12]: 11.6%
- viability, T/C [13]: 13%
- viability, T/C [14]: 15.5%
- viability, T/C [15]: 16.2%
- viability, T/C [29]: 0.14%
- viability, T/C [16]: 15.2%
- viability, T/C [17]: 1.18%
- viability, T/C [18]: 0.07%
- viability, T/C [19]: 0.57%
- viability, T/C [20]: 24.8%
- viability, T/C [30]: 2.23%
- viability, T/C [21]: 1.24%
- viability, T/C [22]: 0.96%
- viability, T/C [23]: 0.12%
- viability, T/C [24]: 0.12%
- viability, T/C [25]: 0.18%

— PubChem BioAssay AID1963865 (Molecular Pharmacology Branch, DTP, NCI, 2024)
